{"source": "patent US20220062218A1", "about": "“COMPOSITIONS AND METHODS FOR TREATING DIABETES” (ENZYCHEM LIFESCIENCES, priority 2019, published 2022)", "key": {"[1]": {"system": "clathrin- or caveolin-silenced INS-1 cells", "test": "Cell apoptosis and ROS generation in clathrin or caveolin siRNA-transfected cells treated with STZ", "assay_type": "cell-based, rat", "description": "GLUT2-silenced cells were prepared to clarify the role of GLUT2 in STZ-treated cells. INS-1 cells were transfected with GLUT2 siRNA to determine whether GLUT2 expression is related to STZ-induced cell apoptosis and ROS generation.\nApoptosis of pancreatic beta cells, intracellular ROS generation and glucose intake was analyzed by flow cytometry using GLUT2 siRNA transfected cells (FIGS. 6-A to 6-C). The effect of PLAG on (D) cell apoptosis and (E) ROS generation in Endocytosis-related protein, clathrin or caveolin siRNA-transfected cells was analyzed (FIG. 6D and 6-E). Data are presented as mean ±SD. **P<0.005, ***P<0.001 vs. control, ##P<0.005, #IIIIP<0.001 vs. STZ group. N.S.: No significance. Transfection with siRNAs was performed using the HiPerFect reagent (Qiagen, Hilden, Germany), according to the manufacturer's protocol. Specific siRNAs directed against GLUT2, clathrin, and caveolin were obtained from Santa Cruz Biotechnology (Dallas, Tex., USA)."}, "INS-1 cells": {"system": "INS-1 cells", "test": "Glucose uptake assay with 2-NBDG in INS-1 cells (flow cytometry, immunofluorescence)", "assay_type": "cell-based, rat", "description": "2-[N-(7-nitrobenz-2-oxa-1,3-diazol-4-yl)amino]-2-deoxy-D-glucose (2-NBDG, N13195, Thermo Scientific) was used for glucose uptake assays. Glucose uptake assays were performed using 2-NBDG conjugated with fluorescent dye. Intracellular 2-NBDG was measured at 60 min (FIG. 5A) and successively calculated from 5 min to 480 min after 2-NBDG treatment by How cytometry (FIG. 5B). Serum-containing complete medium was removed, and INS-1 cells were washed in PBS. The cells were cultured in glucose-free culture media for 1 h at 37° C. and then treated with 2-NBDG. Intracellular fluorescence was measured using a BD FACS Verse flow cytometer (BD Biosciences).\nIntracellular 2-NBDG expression were also observed using immunofluorescence assay (FIG.5-C). Data are presented as mean ±SD. *P<0.05, **P<0.005, ***P<0.001 vs. control, #P<0.05, ##P<0.005 vs. STZ.\n(§1) After treatment with PLAG and PLH(1-palmitoyl-2-linoleoyl-3-hydroxyl-rac-glycerol), apoptosis, intracellular ROS generation and glucose uptake were analyzed by flow cytometry (FIG. 7-B to 7-E). In addition, expression of GLUT2 in membrane fractions was analyzed by Western blotting (FIG.7-F). Data are presented as mean ±SD. ***P<0.001 vs. control, #P<0.05, ##P<0.005 vs. STZ. N.S.: No significance."}, "[2]": {"system": "Glucose Transporter 2 (GLUT2)", "test": "GLUT2 plasma membrane expression in STZ-treated cells (western blotting of membrane fractions, immunofluorescence)", "assay_type": "cell-based, rat", "description": "To investigate the effect of PLAG on GLUT2 plasma membrane localization, GLUT2 expression and Racl expression in membrane fractions were examined in the same manner as the Western protein blotting (FIGS. 3A to 3B).\nIn addition, the localization of GLUT2 was observed by immunofluorescence assay. Cells were grown on glass coverslips in 24-well plates and treated with STZ and PLAG. After washing with ice-cold PBS, the cells were fixed with 4% formaldehyde. Permeabilization was not performed to identify only proteins expressed in the cell membrane. The cells were incubated with anti-GLUT2 antibodies (dilution 1:500) and then stained with an Alexa Fluor 488-conjugated secondary antibody (Enzo Life Sciences, dilution 1:1000) and DAPI (Invitrogen). Stained cells were observed under a Zeiss LSM800 confocal microscope (Carl Zeiss, Jena, Germany) (FIG. 3-C).\nas §1"}, "[3]": {"system": "Streptozotocin (STZ)-induced diabetes model", "test": "Streptozotocin (STZ)-induced diabetes model in mice: blood glucose, serum insulin, body weight, pancreas histopathology", "assay_type": "in vivo", "description": "In order to confirm the efficacy of 1-palmitoyl-2-linoleoyl-3- acetyl-racglycerol (EC-18 or PLAG) in the treatment of diabetes disease, Streptozotocin (STZ)-induced diabetes model were used in the experiments.\nMice were divided into four groups (control group, STZ-only treatment group, PLAG-co-treatment group, and PLAG-post-treatment group). After a 16-h fast, the three treated groups except the control group were injected intraperitoneally with STZ (200 mg/kg BW) prepared fresh in citrate buffer, wherein BW means body weight. STZ-only treatment mice received no additional treatment.\nOn the same day, PLAG-co-treatment group mice began treatment with PLAG (250 mg/kg, p.o.) once daily for 3 consecutive days. The PLAG-post-treatment group received PLAG (250 mg/kg, p.o.) for 2 consecutive days beginning 1 day after STZ injection. As the PLAG, 1-palmitoyl-2-linoleoyl-3-acetyl-rac-glycerol represented by Formula 2 was used.\nBlood was collected via the retro-orbital plexus, and blood glucose levels were monitored during the experiment. Blood glucose was measured using the Accu-Chek glucometer (Roche, Seoul, Republic of Korea). FIG. 1A is a chart measuring the blood glucose of the control group and the experimental groups on the first day.\nAll mice were sacrificed on day 4, last day of experiment (day 4), serum insulin was measured (FIG. 1B). Tissues of the pancreatic tissue of the control group and the experimental group were collected and fixed in 10% formalin for further analysis. During the experiment, the weight change of the control group and the experimental groups was measured (FIG. 1C).\nPancreas tissues were fixed in 10% formalin, embedded in paraffin, and sectioned at a 4 μm thickness. For immunohistochemistry, sections were deparaffinized and […] using xylene and a graded ethanol series Staining was performed using the Real EnVision Detection System Peroxidase-DAB kit (Dako, Glostrup, Denmark) following the manufacturer's instructions, and then observed under a light microscope (Olympus, Tokyo, Japan) (FIG. 1D, 400 magnification)."}, "GLUT2": {"system": "GLUT2", "test": "Plasma membrane GLUT2 expression in high glucose-treated INS-1 cells, western blotting of membrane fractions", "assay_type": "cell-based, rat", "conditions": "pre-treated with 100 pg/mL of PLAG for 1 h, then 30 mM HG for indicated times", "description": "To investigate the effect of PLAG on GLUT2 plasma membrane localization, membrane proteins were fractionated and analyzed by western blotting. INS-1 cells were pre-treated with 100 pg/mL of PLAG for lh, and then treated with 30 mM of HG for indicating times.\nFor membrane protein fractionation, we performed using the MemPER™ Plus Kit (Thermo Scientific, Waltham, Mass., USA) following the manufacturer's instructions. Proteins were separated on 12% sodium dodecyl sulfate-polyacrylamide gels and transferred to polyvinylidene difluoride membranes (EMD Millipore, Darmstadt, Germany) The membranes were blocked and incubated with primary antibodies to GLUT2 (bs-0351r, Bioss, Woburn, Mass., USA) and N+-K+ ATPase (#3010S, Cell Signaling Technology, Danvers, Mass., USA). After three washes in PBST, membranes were incubated with HRP-conjugated secondary antibodies (Enzo Life Sciences, Farmingdale, N.Y., USA) for 1 h at room temperature. Protein bands were detected using ECL reagent (Thermo Scientific) and then visualized on films."}}, "note": "“Also recorded” adds a separate entry of the source.", "data": [{"smiles": "CCCCC/C=C\\C/C=C\\CCCCCCCC(=O)OC(COC(C)=O)COC(=O)CCCCCCCCCCCCCCC", "note": "(racemic) [PLAG, 1-palmitoyl-2-linoleoyl-3-acetyl-rac-glycerol]", "values": [{"measurement": "apoptosis or ROS generation in clathrin- or caveolin-silenced cells", "setting": "[1]", "value": "did not influence apoptosis or ROS generation"}, {"measurement": "glucose uptake (2-NBDG time course)", "setting": "INS-1 cells; 5 min to 480 min after 2-NBDG treatment, flow cytometry, vs 2-NBDG alone", "value": "glucose uptake was attenuated"}, {"measurement": "glucose uptake (2-NBDG), PLAG vs PLH", "setting": "INS-1 cells; Example 8, flow cytometry", "value": "2-NBDG was slowly absorbed"}, {"measurement": "intracellular 2-NBDG fluorescence intensity", "setting": "INS-1 cells; at 60 min, flow cytometry", "value": "lower fluorescence intensity"}, {"measurement": "intracellular 2-NBDG (immunofluorescence)", "setting": "INS-1 cells; time course vs 2-NBDG-only treated group", "value": "increased more slowly"}, {"measurement": "GLUT2 endocytosis / internalization, PLAG vs PLH", "setting": "[2]; Example 8, membrane fractions by western blotting", "value": "endocytosis of GLUT2 was promoted"}, {"measurement": "GLUT2 internalization (immunofluorescence)", "setting": "[2]; STZ-treated cells, non-permeabilized, up to 60 min", "value": "accelerated GLUT2 internalization was observed"}, {"measurement": "membrane-expressed GLUT2 (time course)", "setting": "[2]; STZ-treated cells, western blotting of membrane fractions, up to 60 min", "value": "gradually decreased until 10 min, then recovered and returned to control levels at 60 min"}, {"measurement": "serum insulin (insulin secretion)", "setting": "[3]; day 4, STZ-only group compared with control and PLAG groups (250 mg/kg p.o.)", "value": "Insulin secretion of the STZ-only treatment group is significantly lower than the control and other experimental groups"}, {"measurement": "body weight change", "setting": "[3]; during the experiment, STZ-only group compared with control and PLAG groups (250 mg/kg p.o.)", "value": "STZ-only treatment group has a greater weight change than the control and other experimental groups"}, {"measurement": "blood glucose", "setting": "[3]; first day, PLAG-co-treatment group, 250 mg/kg p.o. once daily, STZ 200 mg/kg i.p., vs control group", "value": "did not have a significant increase in blood glucose"}, {"measurement": "GLUT2 expression in plasma membrane (time course)", "setting": "GLUT2", "value": "gradually decreased until 15 min, then recovered and returned to control levels at 60 min; also recorded: gradually decreased until 15min and then recovered and returned to control levels at 60 min"}]}]}
